Activity calls are given as the source filed them. The rule behind the calls is not given here.
Legend:
[1] = Selectivity index, ratio of GI50 for human HL-60 cells to GI50 for antitrypanosomal activity against Trypanosoma brucei brucei S427; type: toxicity; details: read-out: RatioGI50
[2] = tested on: Trypanosoma brucei brucei; assay: Antitrypanosomal activity against Trypanosoma brucei brucei S427 by resazurin dye based fluorescence assay; type: functional
[3] = Cytotoxicity against human HL-60 cells by resazurin dye based fluorescence assay; type: cell-based
[4] = tested on: Trypanosoma brucei brucei; assay: Antitrypanosomal activity against Trypanosoma brucei brucei assessed as cell swelling; type: functional, organism-based

Row | SMILES | selectivity ratio [1] | GI50 [2] [µM] | GI50 [3] [µM] | Activity [4]
1 | Cc1ccc(C(=O)Nc2ccc(S(=O)(=O)O)c3cc(S(=O)(=O)O)cc(S(=O)(=O)O)c23)cc1NC(=O)c1cccc(NC(=O)Nc2cccc(C(=O)Nc3cc(C(=O)Nc4ccc(S(=O)(=O)O)c5cc(S(=O)(=O)O)cc(S(=O)(=O)O)c45)ccc3C)c2)c1 [SURAMIN] | > 1720 | 0.058 | > 100 | –
2 | CC[C@@H](C(=O)[C@@H](C)[C@@H](O)[C@H](C)[C@@H]1O[C@@H]([C@@H](CC)C(=O)O)CC[C@@H]1C)[C@H]1O[C@]2(C=C[C@H](OC(=O)Oc3ccccc3)[C@]3(CC[C@@](C)([C@H]4CC[C@](O)(CC)[C@H](C)O4)O3)O2)[C@H](C)C[C@@H]1C | 106 | 0.22 | 23.4 | –
3 | CC[C@@H](C(=O)[C@@H](C)[C@@H](O)[C@H](C)[C@@H]1O[C@@H]([C@@H](CC)C(=O)O)CC[C@@H]1C)[C@H]1O[C@]2(C=C[C@H](OC(=O)c3ccccc3)[C@]3(CC[C@@](C)([C@H]4CC[C@](O)(CC)[C@H](C)O4)O3)O2)[C@H](C)C[C@@H]1C | 67.5 | 0.34 | 13.5 | –
4 | C#CCNC(=O)[C@H](CC)[C@H]1CC[C@H](C)[C@H]([C@@H](C)[C@H](O)[C@H](C)C(=O)[C@H](CC)[C@H]2O[C@]3(C=C[C@H](O)[C@]4(CC[C@@](C)([C@H]5CC[C@](O)(CC)[C@H](C)O5)O4)O3)[C@H](C)C[C@@H]2C)O1 | 15.1 | 2.97 | 44.8 | –
5 | C#CCOC(=O)[C@H](CC)[C@H]1CC[C@H](C)[C@H]([C@@H](C)[C@H](O)[C@H](C)C(=O)[C@H](CC)[C@H]2O[C@]3(C=C[C@H](OC(=O)OCC)[C@]4(CC[C@@](C)([C@H]5CC[C@](O)(CC)[C@H](C)O5)O4)O3)[C@H](C)C[C@@H]2C)O1 | > 312 | 15 | > 100 | –
6 | CC[C@@H](C(=O)[C@@H](C)[C@@H](O)[C@H](C)[C@@H]1O[C@@H]([C@@H](CC)C(=O)O)CC[C@@H]1C)[C@H]1O[C@]2(C=C[C@@H](O)[C@]3(CC[C@@](C)([C@H]4CC[C@](O)(CC)[C@H](C)O4)O3)O2)[C@H](C)C[C@@H]1C [SALINOMYCIN] | 168 | 0.3 | 50.5 | Active
7 | CCCCCCCCNC(=O)O[C@H]1C=C[C@]2(O[C@H]([C@@H](CC)C(=O)[C@@H](C)[C@@H](O)[C@H](C)[C@@H]3O[C@@H]([C@@H](CC)C(=O)O)CC[C@@H]3C)[C@@H](C)C[C@H]2C)O[C@@]12CC[C@@](C)([C@H]1CC[C@](O)(CC)[C@H](C)O1)O2 | 123 | 0.2 | 24.6 | –
8 | CCCCCCCCCC(=O)O[C@H]1C=C[C@]2(O[C@H]([C@@H](CC)C(=O)[C@@H](C)[C@@H](O)[C@H](C)[C@@H]3O[C@@H]([C@@H](CC)C(=O)O)CC[C@@H]3C)[C@@H](C)C[C@H]2C)O[C@@]12CC[C@@](C)([C@H]1CC[C@](O)(CC)[C@H](C)O1)O2 | 165 | 2.48 | 5.97 | Active
9 | CC[C@@H](C(=O)[C@@H](C)[C@@H](O)[C@H](C)[C@@H]1O[C@@H]([C@@H](CC)C(=O)O)CC[C@@H]1C)[C@H]1O[C@]2(C=C[C@H](OC(C)=O)[C@]3(CC[C@@](C)([C@H]4CC[C@](O)(CC)[C@H](C)O4)O3)O2)[C@H](C)C[C@@H]1C | 21.2 | 0.043 | 52.5 | –
10 | CCOC(=O)O[C@H]1C=C[C@]2(O[C@H]([C@@H](CC)C(=O)[C@@H](C)[C@@H](O)[C@H](C)[C@@H]3O[C@@H]([C@@H](CC)C(=O)O)CC[C@@H]3C)[C@@H](C)C[C@H]2C)O[C@@]12CC[C@@](C)([C@H]1CC[C@](O)(CC)[C@H](C)O1)O2 | 293 | 0.2 | 12.6 | Active
11 | CC[C@@H](C(=O)[C@@H](C)[C@@H](O)[C@H](C)[C@@H]1O[C@@H]([C@@H](CC)C(=O)O)CC[C@@H]1C)[C@H]1O[C@]2(C=C[C@H](OC(=O)OCC(C)(C)C)[C@]3(CC[C@@](C)([C@H]4CC[C@](O)(CC)[C@H](C)O4)O3)O2)[C@H](C)C[C@@H]1C | 2 | 21.6 | 42.4 | –
12 | CC[C@@H](C(=O)[C@@H](C)[C@@H](O)[C@H](C)[C@@H]1O[C@@H]([C@@H](CC)C(=O)O)CC[C@@H]1C)[C@H]1O[C@]2(C=C[C@H](O)[C@]3(CC[C@@](C)([C@H]4CC[C@](O)(CC)[C@H](C)O4)O3)O2)[C@H](C)C[C@@H]1C | 4.6 | 8.49 | 393 | inactive
13 | CC[C@@H](C(=O)[C@@H](C)[C@@H](O)[C@H](C)[C@@H]1O[C@@H]([C@@H](CC)C(=O)ONC(=O)c2ccccc2)CC[C@@H]1C)[C@H]1O[C@]2(C=C[C@H](OC(C)=O)[C@]3(CC[C@@](C)([C@H]4CC[C@](O)(CC)[C@H](C)O4)O3)O2)[C@H](C)C[C@@H]1C | 18.2 | 0.47 | 19.1 | –
14 | CC[C@@H](C(=O)[C@@H](C)[C@@H](O)[C@H](C)[C@@H]1O[C@@H]([C@@H](CC)C(=O)O)CC[C@@H]1C)[C@H]1O[C@]2(C=C[C@H](OC(=O)C34CC5CC(CC(C5)C3)C4)[C@]3(CC[C@@](C)([C@H]4CC[C@](O)(CC)[C@H](C)O4)O3)O2)[C@H](C)C[C@@H]1C | 55 | 0.24 | 18.7 | –
15 | C#CCOC(=O)[C@H](CC)[C@H]1CC[C@H](C)[C@H]([C@@H](C)[C@H](O)[C@H](C)C(=O)[C@H](CC)[C@H]2O[C@]3(C=C[C@H](OC(C)=O)[C@]4(CC[C@@](C)([C@H]5CC[C@](O)(CC)[C@H](C)O5)O4)O3)[C@H](C)C[C@@H]2C)O1 | 123 | 22.4 | > 100 | –
16 | C#CCNC(=O)[C@H](CC)[C@H]1CC[C@H](C)[C@H]([C@@H](C)[C@H](O)[C@H](C)C(=O)[C@H](CC)[C@H]2O[C@]3(C=C[C@H](OC(C)=O)[C@]4(CC[C@@](C)([C@H]5CC[C@](O)(CC)[C@H](C)O5)O4)O3)[C@H](C)C[C@@H]2C)O1 | 2 | 20.9 | 39.8 | –
17 | C#CCOC(=O)[C@H](CC)[C@H]1CC[C@H](C)[C@H]([C@@H](C)[C@H](O)[C@H](C)C(=O)[C@H](CC)[C@H]2O[C@]3(C=C[C@H](O)[C@]4(CC[C@@](C)([C@H]5CC[C@](O)(CC)[C@H](C)O5)O4)O3)[C@H](C)C[C@@H]2C)O1 | > 3.7 | 26.9 | > 100 | –
18 | CC[C@@H](C(=O)[C@@H](C)[C@@H](O)[C@H](C)[C@@H]1O[C@@H]([C@@H](CC)C(=O)ONC(=O)c2ccccc2O)CC[C@@H]1C)[C@H]1O[C@]2(C=C[C@H](O)[C@]3(CC[C@@](C)([C@H]4CC[C@](O)(CC)[C@H](C)O4)O3)O2)[C@H](C)C[C@@H]1C | 11.8 | 2.81 | 33.2 | –
19 | C#CCNC(=O)[C@H](CC)[C@H]1CC[C@H](C)[C@H]([C@@H](C)[C@H](O)[C@H](C)C(=O)[C@H](CC)[C@H]2O[C@]3(C=C[C@H](OC(=O)OCC)[C@]4(CC[C@@](C)([C@H]5CC[C@](O)(CC)[C@H](C)O5)O4)O3)[C@H](C)C[C@@H]2C)O1 | 106 | 13.8 | 61.8 | –
20 | CCNC(=O)N(CC)C(=O)O[C@H]1C=C[C@]2(O[C@H]([C@@H](CC)C(=O)[C@@H](C)[C@@H](O)[C@H](C)[C@@H]3O[C@@H]([C@@H](CC)C(=O)O)CC[C@@H]3C)[C@@H](C)C[C@H]2C)O[C@@]12CC[C@@](C)([C@H]1CC[C@](O)(CC)[C@H](C)O1)O2 | 353 | 0.027 | 9.54 | Active
21 | CC[C@@H](C(=O)[C@@H](C)[C@@H](O)[C@H](C)[C@@H]1O[C@@H]([C@@H](CC)C(=O)ONC(=O)c2ccccc2O)CC[C@@H]1C)[C@H]1O[C@]2(C=C[C@H](OC(C)=O)[C@]3(CC[C@@](C)([C@H]4CC[C@](O)(CC)[C@H](C)O4)O3)O2)[C@H](C)C[C@@H]1C | 353 | 0.59 | 203 | –
22 | CC[C@@H](C(=O)[C@@H](C)[C@@H](O)[C@H](C)[C@@H]1O[C@@H]([C@@H](CC)C(=O)O)CC[C@@H]1C)[C@H]1O[C@]2(C=C[C@H](OC(=O)NC(C)(C)C)[C@]3(CC[C@@](C)([C@H]4CC[C@](O)(CC)[C@H](C)O4)O3)O2)[C@H](C)C[C@@H]1C | > 312 | 0.32 | > 100 | –
23 | CC[C@@H](C(=O)[C@@H](C)[C@@H](O)[C@H](C)[C@@H]1O[C@@H]([C@@H](CC)C(=O)O)CC[C@@H]1C)[C@H]1O[C@]2(C=C[C@H](OC(=O)C(C)C)[C@]3(CC[C@@](C)([C@H]4CC[C@](O)(CC)[C@H](C)O4)O3)O2)[C@H](C)C[C@@H]1C | 90 | 0.036 | 21.6 | –
24 | CC[C@@H](C(=O)[C@@H](C)[C@@H](O)[C@H](C)[C@@H]1O[C@@H]([C@@H](CC)C(=O)ONC(=O)c2ccccc2)CC[C@@H]1C)[C@H]1O[C@]2(C=C[C@H](O)[C@]3(CC[C@@](C)([C@H]4CC[C@](O)(CC)[C@H](C)O4)O3)O2)[C@H](C)C[C@@H]1C | 29.8 | 0.32 | 9.54 | –
25 | CC[C@@H](C(=O)[C@@H](C)[C@@H](O)[C@H](C)[C@@H]1O[C@@H]([C@@H](CC)C(=O)O)CC[C@@H]1C)[C@H]1O[C@]2(C=C[C@H](OC(=O)Nc3ccccc3)[C@]3(CC[C@@](C)([C@H]4CC[C@](O)(CC)[C@H](C)O4)O3)O2)[C@H](C)C[C@@H]1C | 18.2 | 3.15 | 57.2 | –

— ChEMBL document CHEMBL4732069, “Singly and doubly modified analogues of C20-epi-salinomycin: A new group of antiparasitic agents against Trypanosoma brucei” (Eur J Med Chem, 2021)
